# Tested on: ckr mouse
# Test: Prepulse inhibition (PPI) of the startle reflex in ckr mice
# Assay type: in vivo
# Conditions: 10 mg/kg
# Protocol: To obtain the ckr mouse model presented in this Example, a representative compound 2 as set forth in Example 3 was used to investigate a standard measure of sensorimotor gating of the startle reflex. Sensorimotor gating of the startle reflex was assessed via measures of prepulse inhibition (PPI), which is the reduction in startle magnitude when the startling stimulus is preceded immediately by a weak prepulse. This measurement is valuable because the relative loss of PPI has been established in inherited neurodevelopmental disorders, such as schizophrenia in humans, as well as in rats after treatment with certain classes of drugs, including serotonin (5-HT) agonists. In animal models, the PPI test is considered to have good face, predictive and construct validity for sensorimotor gating deficits in schizophrenia.
# A stock solution of compound 2 was dissolved in DMSO, and then diluted to 10 mg/10 ml with distilled water such that the final concentration of DMSO was 0.5%. […]
# Startle reactivity was measured using a startle chamber (SR-LAB, San Diego Instruments, San Diego, Calif.). […]
# The protocol for measuring PPI was adapted from known techniques. […] The startle response was recorded as the average movement detected over 65 ms following the pulse. […]
# The startle amplitude was measured as the average startle response for the pulse-alone trials. […]
smiles,measurement,value
COC(=O)[C@@H](c1ccc(-c2ccccc2)cc1)[C@H]1C=CCCN1 [Compound 2],PPI over the control across all pre-pulse intensities,trend of increased PPI

# Source: patent publication US7851487B2, “Use of tetrahydropyridines in the treatment of central nervous system disorders” (The Research Foundation of State University of New York, priority 2006, dated 2010)
